Measured values reported in patent publication US20060058504A1, “Peptides capable of inducing attraction to the axonal growth and their use for treating neurodegenerative diseases” (Centre National de la Recherche Scientific (CNRS), priority 2002, published 2006).
“Also recorded” adds a separate entry of the source.

Assays:
[1] = test system: Sema3A-induced co-internalization of L1 and NP-1; experiment: Immunocytochemical detection of cell-surface L1 and NP-1; type: cell-based; conditions: peptide 10^−5M
Experimental: (§1) Neonatal cortical cells or COS7 cells transfected with expression vectors for L1 and NP-1 were incubated for 15 min with Rhodamine-Dextran (2 mg/ml) mixed to a solution of Sema3A-AP supernatant, Sema3A and peptide (10^−5M), peptide alone (10^−5M) or control supernatant. Cells were fixed with PFA 4% and processed for immunocytochemistry as described in the above sections. To detect intracellular proteins, cells were permeabilized with methanol for 2 min.
In parallel, cells submitted to the same treatments were processed for immunocytochemical detection of L1 and NP-1. […] Furthermore, in the Sema3A-treated cultures L1 and NP-1 immunoreactivities were detected after permeabilization, as co-localized cytoplasmic patches (FIGS. 7F-7H).

[2] = test system: Sema3A-induced endocytosis in COS7 cells co-expressing L1 and NP-1; experiment: Rhodamine-Dextran uptake in COS7 cells co-expressing L1 and NP-1; type: cell-based; conditions: 15 min, peptide 10^−5M
Experimental: as §1
(§2) Therefore it has been tested whether L1 mimetic peptide was able to block endocytosis. To visualize endocytosis we examined the uptake of Rhodamine-Dextran applied on live cortical cultures in various conditions. Cells were treated for 15 min with Rhodamine-Dextran together with Sema3A alone, Sema3A combined with the L1 mimetic peptide, peptide alone or untreated as control conditions. Strikingly, uptake of Rhodamine-Dextran was exclusively observed when cells were treated with Sema3A alone. Under this condition, spots of internalized fluorescence were observed along axon shafts and surrounding the cell bodies. […] To correlate this process with L1/NP-1 cis and trans interactions, the experiments of Rhodamine-Dextran uptake were performed on COS7 cells transfected to co-express L1 and NP-1 (FIG. 6B).

[3] = test system: Sema3A-induced endocytosis in neonatal cortical cells; experiment: Rhodamine-Dextran uptake in neonatal cortical cells; type: cell-based; conditions: 15 min, peptide 10^−5M
Experimental: as §1, §2

L1/NP-1 complex = experiment: Co-immunoprecipitation of the L1/NP-1 complex in presence of peptide; type: binding; conditions: Sema3A combined to the peptide
Experimental: COS cells were transfected with various expression vectors coding for full-length HA-tagged NP-1, myc-tagged cyt-deleted NP-1, wild-type L1, and L1 mutant constructs (G121S, A426D, L120V) using a lipofection transfection method (lipofectamine). After 2 DIV, cells were lysed with immunoprecipitation buffer (IP buffer: Hepes 25 mM, EDTA 5 mM, MgCl2 1 mM, PMSF 2 mM, glycerol 10% and triton X100 1%, pH 7). The lysate was incubated at 4° C. for 30 min, centrifuged for 5 min and pre-cleared with protein A-Sepharose for 2 hrs at 4° C. Samples were immunoprecipitated with mouse anti-HA (3μl, clone 12CA5, Roche), rabbit anti-L1 antibodies (3 μl), mouse anti-myc antibodies (3 μl, 9E 10, Sigma) coupled to rabbit anti-mouse antibodies on protein A preformed complexes for 16 hrs at 4° C. The beads were washed, and the precipitates analyzed by immunoblot using anti-HA (1:1000) and anti-L1 (1:1000) antibodies.
A possible molecular mechanism by which soluble L1 and its mimetic peptide could exert their modulatory effect on Sema3A signaling is that they compete with transmembrane L1 in the L1/NP-1 complex. To address this issue we examined in immunoprecipitation experiments the L1/NP-1 complex in conditions mimicking either a repulsive (Sema3A alone) or an attractive (Sema3A combined to the peptide) environment. […]

[4] = test system: cortical axons repelled by Sema3A secreted from the ventral spinal cord; experiment: Co-culture of cortical slices and ventral spinal cord explants (axon guidance response to Sema3A); type: cell-based, mice
Experimental: Blocks of cortex were dissected from P0 (postnatal day 0) to P2 mice and cut into 250 μm thick slices with a McIlwain tissue chopper. The ventral part of the cervical spinal cord was dissected and cut into 250 μm thick slices. Co-culture of cortical slices and ventral spinal cord explants were performed in a three-dimensional plasma clot, as described previously (Castellani et al., 2000). Cortical slices were oriented in the plasma clot as indicated in FIG. 1B to give to axons equivalent chances to be deflected away or towards the spinal cord explant. Purified wild-type or mutant L1Fc chimeras were added to the culture medium (3 μg/ml). Inhibitors of the guanylyl cyclase (ODQ, 10^−5 M, Sigma) and NOS (7NI, […], Sigma) were added to the culture medium, either alone or with wild-type L1Fc (3 μg/ml). After one or two days in vitro (DIV), the cultures were fixed with 4% paraformaldehyde (PFA) and analyzed by phase contrast microscopy (Axiovert 35-M, Zeiss). A qualitative guidance index was attributed to the co-cultures, to assess the degree of repulsive (negative values) or attractive (positive values) effects (Castellani et al., 2000). The index ranged from −2 (when most fibers grew away from the spinal cord explant) to +2 (when most fibers grew towards the explant), with intermediate situations (index of −1 and +1 for moderate guidance effects). An index of zero was attributed to the cultures showing no preferential growth. Quantitative analysis of axon length and number of axons growing from cortical slices was performed as described previously (Castellani et al., 2000). A proximal and a distal region, each of them covering a 600 μm-piece of cortical tissue were determined for each culture. All fibers extending from these two regions were counted and the length of the three longest fibers was measured, using computer analysis software (Visiolab 2000, Biocom). Immunofluorescence labeling of axons was performed using the mouse anti-phosphorylated neurofilament antibody SMI31 (Stemberger and Meyer Inc.), and Texas red-conjugated secondary anti-mouse antibody (see result obtained for number of axons and axonal length in the following tables 1 and 2).
It has been previously developed an assay system using explants of ventral spinal cord co-cultured with cortical axons in order to determine the factors involved in axonal repulsion and attraction (Castellani et al., 2000). Using this system we have shown that Sema3A secreted from the ventral spinal cord repels cortical axons. In the presence of soluble wild-type L1Fc chimeric protein however, repulsion is switched to attraction (Castellani et al., […]). In the present study, we aimed to identify the L1 interactions underlying the switching process. As Ig domains have been implicated in binding of Ig CAMs to many of their ligands (Brümmendorf and Rathjen, 1996) we hypothesized that they would also be required for L1 Fc-mediated switching. […] L1 Fc chimeras containing pathological missense mutations affecting specific Ig domains (De Angelis et al., 1999 and FIGS. 1A, 1B) were assessed for their ability to reverse Sema3A repulsion to attraction.

L1/NP-1 complex, sequence (O14786 22-923): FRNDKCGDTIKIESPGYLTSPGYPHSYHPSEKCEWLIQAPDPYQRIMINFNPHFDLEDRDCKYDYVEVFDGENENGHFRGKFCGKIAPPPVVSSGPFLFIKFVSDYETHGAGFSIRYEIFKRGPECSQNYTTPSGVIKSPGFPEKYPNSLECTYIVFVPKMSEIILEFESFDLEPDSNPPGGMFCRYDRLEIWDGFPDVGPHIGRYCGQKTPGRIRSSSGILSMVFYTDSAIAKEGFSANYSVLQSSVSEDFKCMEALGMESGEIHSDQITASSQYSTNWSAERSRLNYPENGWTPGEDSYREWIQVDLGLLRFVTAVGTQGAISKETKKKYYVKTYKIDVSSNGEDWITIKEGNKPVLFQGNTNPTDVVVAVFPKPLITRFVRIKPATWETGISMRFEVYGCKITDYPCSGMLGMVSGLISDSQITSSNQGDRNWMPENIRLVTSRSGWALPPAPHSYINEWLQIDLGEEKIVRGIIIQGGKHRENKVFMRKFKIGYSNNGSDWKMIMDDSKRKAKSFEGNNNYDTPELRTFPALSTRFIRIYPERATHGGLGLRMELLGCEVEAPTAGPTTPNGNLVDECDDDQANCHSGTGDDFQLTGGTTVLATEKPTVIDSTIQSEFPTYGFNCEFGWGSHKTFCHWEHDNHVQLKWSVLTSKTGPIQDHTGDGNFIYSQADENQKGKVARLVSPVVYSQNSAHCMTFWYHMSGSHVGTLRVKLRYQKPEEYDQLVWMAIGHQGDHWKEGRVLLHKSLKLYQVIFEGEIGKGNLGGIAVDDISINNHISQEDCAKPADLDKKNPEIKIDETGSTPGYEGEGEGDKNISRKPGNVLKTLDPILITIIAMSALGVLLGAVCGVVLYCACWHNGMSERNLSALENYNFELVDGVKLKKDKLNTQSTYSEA
L1/NP-1 complex, sequence (P32004 20-1257 partner): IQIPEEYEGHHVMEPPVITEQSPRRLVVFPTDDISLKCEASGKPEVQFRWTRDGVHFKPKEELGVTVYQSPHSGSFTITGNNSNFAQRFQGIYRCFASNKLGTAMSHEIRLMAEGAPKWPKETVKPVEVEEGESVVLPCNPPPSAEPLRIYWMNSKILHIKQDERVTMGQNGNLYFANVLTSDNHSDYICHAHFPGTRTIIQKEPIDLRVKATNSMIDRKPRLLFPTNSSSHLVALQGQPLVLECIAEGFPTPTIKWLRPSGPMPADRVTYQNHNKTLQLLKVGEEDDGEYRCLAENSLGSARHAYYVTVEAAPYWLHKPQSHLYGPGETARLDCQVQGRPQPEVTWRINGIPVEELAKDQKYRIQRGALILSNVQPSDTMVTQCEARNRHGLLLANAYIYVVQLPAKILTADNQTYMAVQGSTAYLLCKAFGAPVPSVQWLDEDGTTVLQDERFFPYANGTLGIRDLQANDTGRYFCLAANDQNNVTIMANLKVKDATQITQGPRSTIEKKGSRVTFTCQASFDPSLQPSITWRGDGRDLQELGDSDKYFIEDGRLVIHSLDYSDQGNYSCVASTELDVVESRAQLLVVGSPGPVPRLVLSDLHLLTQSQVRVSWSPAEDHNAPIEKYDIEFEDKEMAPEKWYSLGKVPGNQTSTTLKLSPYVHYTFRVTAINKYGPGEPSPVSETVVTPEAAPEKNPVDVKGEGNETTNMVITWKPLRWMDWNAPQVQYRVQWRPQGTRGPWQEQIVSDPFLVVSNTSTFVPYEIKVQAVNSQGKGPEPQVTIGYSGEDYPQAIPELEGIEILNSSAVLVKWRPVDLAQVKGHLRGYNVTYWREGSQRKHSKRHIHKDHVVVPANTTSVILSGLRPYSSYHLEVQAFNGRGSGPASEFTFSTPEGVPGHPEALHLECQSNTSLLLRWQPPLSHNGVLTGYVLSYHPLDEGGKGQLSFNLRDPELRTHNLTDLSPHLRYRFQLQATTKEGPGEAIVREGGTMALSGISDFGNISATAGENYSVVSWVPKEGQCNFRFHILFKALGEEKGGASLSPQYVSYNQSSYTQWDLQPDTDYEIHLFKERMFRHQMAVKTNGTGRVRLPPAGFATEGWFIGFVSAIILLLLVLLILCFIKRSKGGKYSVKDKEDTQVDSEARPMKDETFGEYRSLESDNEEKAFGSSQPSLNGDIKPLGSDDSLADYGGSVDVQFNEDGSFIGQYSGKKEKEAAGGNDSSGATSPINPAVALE

FASNKL (Description of the Artificial sequence Derived from the human amino-acid sequence of L1 Ig1 domain) [FASNKL120, six amino-acid peptide from L1 Ig1 domain]
L1 and NP-1 cell surface expression, Sema3A combined with peptide [1]: the two proteins were detected; also recorded: blocked by the peptide; also recorded: detected on the cell membrane | L1 and NP-1 cell surface expression, peptide alone [1]: cell surface expression was observed | L1 and NP-1 cell surface expression, Sema3A combined with peptide ([1]; listed as switching peptide): this process was blocked | L1 and NP-1 cell surface expression, peptide alone ([1]; listed as switching peptide): the two proteins were detected | Rhodamine-Dextran uptake, Sema3A combined with peptide [2]: This process was blocked | Rhodamine-Dextran uptake, peptide alone [2]: no endocytosis could be detected | Rhodamine-Dextran uptake, Sema3A combined with peptide ([2]; listed as mimetic peptide): but not Sema3A combined with the mimetic peptide induced internalization | Rhodamine-Dextran uptake, peptide alone ([2]; listed as mimetic peptide): No fluorescent labeling was detected | Rhodamine-Dextran uptake, Sema3A combined with peptide ([3]; listed as L1 mimetic peptide): blocks Sema3A-induced endocytosis; also recorded: Internalization was blocked | Rhodamine-Dextran uptake, peptide alone ([3]; listed as L1 mimetic peptide): no uptake of Rhodamine-Dextran could be detected; also recorded: Uptake of Rhodamine-Dextran was not detected | Rhodamine-Dextran uptake, Sema3A combined with peptide ([3]; listed as peptide mimicking soluble L1): blocks Sema3A-induced endocytosis | cis interaction between L1 and NP-1 in presence of the peptide (L1/NP-1 complex): did not abrogate the cis interaction between L1 and NP-1 | switching of Sema3A repulsion to attraction by peptide ([4]; peptide at 10^−5 and 10^−6M): switched Sema3A repulsion to attraction | conversion of Sema3A-induced chemorepulsion into attraction by peptide ([4]; peptide at 10^−6M): successfully converted Sema3A-induced chemorepulsion into attraction
